Each compound was assayed on MAPK p38 phosphorylation (assay: MAPK p38 Activation Assay (western blot), Panc-1). Settings: at 10 μM, Panc-1 pancreatic cancer cell line; starred symbols = activation.
Type: cell-based, human
Description: Protocol for MAPK p38 Activation Assay
This assay is referred to as the “MAPK p38 Activation Assay” throughout this application.
Cell lines: Human tumor-derived pancreatic cancer cell line Panc-1 (expressing KRas G12D mutant) was purchased from American Type Culture Collection and grown in complete DMEM-High Glucose medium, supplemented with penicillin (100 U/mL), streptomycin (100 μg/mL), and 10% heat-inactivated FBS at 37° C. in a humidified incubator with 5% CO2.
Method 1: Cells were plated at 350000 cells/well density in a 12-well plate, allowed 3 hours to adhere to the plate, then starved in the appropriate medium in the presence of 0.5% FBS overnight. The small molecules to be tested were added to the cells in the final concentration of 10 μM in the presence of 0.3% DMSO for 6 hours incubation at 37° C. For IC50 value determination, serial dilutions of compounds were added to cells under the same conditions. Next, cells were stimulated with 1.5 ng/ml EGF for 15 minutes then cells were lysed with lysis buffer containing 1% Triton X-100, EDTA, and Halt™ Protease & Phosphatase Inhibitor Cocktail (Thermo Scientific). Protein concentration was assessed by BCA protein assay (Thermo Scientific). Phosphorylation level of MAPK p38 was determined by western blot.
Method 2: Cells were plated at 350000 cells/well density in a 12-well plate in 10% FBS. The next day small molecules to be tested were added to the cells in the final concentration of 10 μM in the presence of 0.3% DMSO for 6 hours incubation at 37° C. For IC50 value determination, serial dilutions of compounds were added to cells under the same conditions. Next, cells were lysed with lysis buffer containing 1% Triton X-100, EDTA, and Halt™ Protease & Phosphatase Inhibitor Cocktail (Thermo Scientific). Protein concentration was assessed by BCA protein assay (Thermo Scientific). Phosphorylation level of MAPK p38 was determined by western blot.
Western blot protocol: Equal amounts of protein (15-50 μg) were separated by SDS-PAGE and transferred to nitrocellulose membranes (Invitrogen by Thermo Fisher Scientific). The membrane was stained with Ponceau S Stain (Boston BioProducts) to verify uniform protein loading. Membranes were blocked with 10% milk and phosphorylation levels of MAPK p38 were assessed by incubating overnight at 4° C. with the following antibody: Phospho-p38 MAPK (Thr180/Tyr182), from Cell Signaling Technology. Then the membranes were incubated with HRP-conjugated secondary antibody (Jackson Immunoresearch, West Grove, PA). Bands were incubated in Amersham ECL Prime Western Blotting Detection Reagent (GE Healthcare) and visualized using the ChemiDoc MP imaging system (Bio-Rad).
For `CO[C@H]1C[C@H](Nc2nc(-c3nccn3C)nn3cc(-c4cccc(CN)c4)c(-c4ccccc4)c23)C1` [Compound 204, 6-(3-(aminomethyl)phenyl)-N-((1r,3r)-3-methoxycyclobutyl)-2-(1-methyl-1H-imidazol-2-yl)-5-phenylpyrrolo[2,1-f][1,2,4]triazin-4-amine], the “% inh of MAPK p38 in Panc-1” value was “E (E = 1-30% inhibition)”. In the case of `CO[C@H]1C[C@H](Nc2nc(-c3nccn3C)nn3cc(-c4cccc(OCCN)c4)c(-c4ccccc4)c23)C1` [Compound 205, 6-(3-(2-Aminoethoxy)phenyl)-N-((1r,3r)-3-methoxycyclobutyl)-2-(1-methyl-1H-imidazol-2-yl)-5-phenylpyrrolo[2,1-f][1,2,4]triazin-4-amine], the “% inh of MAPK p38 in Panc-1” value is reported as “G (G = 75-99% inhibition)”. For `CO[C@H]1C[C@H](Nc2nc(-c3nccn3C)nn3cc(-c4ccc(CN)cc4)c(-c4ccccc4)c23)C1.Cl` [Compound 206, 6-(4-(Aminomethyl)phenyl)-N-((1r,3r)-3-methoxycyclobutyl)-2-(1-methyl-1H-imidazol-2-yl)-5-phenylpyrrolo[2,1-f][1,2,4]triazin-4-amine hydrochloride salt], the “% inh of MAPK p38 in Panc-1” value was “E (E = 1-30% inhibition)”. With `CO[C@H]1C[C@H](Nc2nc(-c3nccn3C)nn3cc(-c4ccc(CCN)cc4)c(-c4ccccc4)c23)C1.Cl` [Compound 207, 6-(4-(2-Aminoethyl)phenyl)-N-((1r,3r)-3-methoxycyclobutyl)-2-(1-methyl-1H-imidazol-2-yl)-5-phenylpyrrolo[2,1-f][1,2,4]triazin-4-amine hydrochloride salt] the “% inh of MAPK p38 in Panc-1” value was “H (H = 100% inhibition)”. With `CO[C@H]1C[C@H](Nc2nc(-c3nccn3C)nn3cc(-c4ccc(OCCN)cc4)c(-c4ccccc4)c23)C1.Cl` [Compound 208, 6-(4-(2-Aminoethoxy)phenyl)-N-((1r,3r)-3-methoxycyclobutyl)-2-(1-methyl-1H-imidazol-2-yl)-5-phenylpyrrolo[2,1-f][1,2,4]triazin-4-amine hydrochloride salt] the “% inh of MAPK p38 in Panc-1” value was “G (G = 75-99% inhibition)”. For `COc1cccc(-c2cn3nc(-c4nccn4C)nc(N[C@H]4C[C@H](OC)C4)c3c2-c2ccccc2)c1C` [Compound 209, 6-(3-methoxy-2-methylphenyl)-N-((1r,3r)-3-methoxycyclobutyl)-2-(1-methyl-1H-imidazol-2-yl)-5-phenylpyrrolo[2,1-f][1,2,4]triazin-4-amine], the “% inh of MAPK p38 in Panc-1” value was “H (H = 100% inhibition)”. `CO[C@H]1C[C@H](Nc2nc(-c3nccn3C)nn3cc(-c4cccc5c4CCO5)c(-c4ccccc4)c23)C1` [Compound 210, 6-(2,3-Dihydrobenzofuran-4-yl)-N-((1r,3r)-3-methoxycyclobutyl)-2-(1-methyl-1H-imidazol-2-yl)-5-phenylpyrrolo[2,1-f][1,2,4]triazin-4-amine] was tested, and the “% inh of MAPK p38 in Panc-1” value was “G (G = 75-99% inhibition)”. In the case of `Cn1ccnc1-c1nc(NS(C)(=O)=O)c2c(-c3ccccc3)c(-c3ccccc3)cn2n1` [Compound 212, N-(2-(1-Methyl-1H-imidazol-2-yl)-5,6-diphenylpyrrolo[2,1-f][1,2,4]triazin-4-yl) methanesulfonamide], the “% inh of MAPK p38 in Panc-1” value is reported as “F (F = 31-74% inhibition)”. `COCCCS(=O)(=O)Nc1nc(-c2nccn2C)nn2cc(-c3ccccc3)c(-c3ccccc3)c12` [Compound 213, 3-Methoxy-N-(2-(1-methyl-1H-imidazol-2-yl)-5,6-diphenylpyrrolo[2,1-f][1,2,4]triazin-4-yl)propane-1-sulfonamide] was tested, and the “% inh of MAPK p38 in Panc-1” value was “F (F = 31-74% inhibition)”. With `CO[C@H]1C[C@H](S(=O)(=O)Nc2nc(-c3nccn3C)nn3cc(-c4ccccc4)c(-c4ccccc4)c23)C1` [Compound 214, (1r,3r)-3-Methoxy-N-(2-(1-methyl-1H-imidazol-2-yl)-5,6-diphenylpyrrolo[2,1-f][1,2,4]triazin-4-yl)cyclobutane-1-sulfonamide] the “% inh of MAPK p38 in Panc-1” value was “G (G = 75-99% inhibition)”.

Reference: US12459951B2, “Compounds that interact with RAS superfamily proteins for treatment of cancers, inflammatory diseases, rasopathies, and fibrotic disease” (SHY Therapeutics, LLC, priority 2022, dated 2025)
